According to ChEMBL document CHEMBL5724914, “Linking interpersonal differences in gut microbiota composition and drug biotransformation activity” (2024):

Conditions: human gut metagenome, 24 h, 2 µM
Also: call rule not given here.

Compound | Bacterial Biotransformation
COC(=O)C(c1ccccc1)C1CCCCN1 (stereo not given) [METHYLPHENIDATE] | Compound metabolized
CN1CCN2c3ccccc3Cc3ccccc3C2C1 (stereo not given) [MIANSERIN] | Compound metabolized
CC#C[C@]1(O)CC[C@H]2[C@@H]3CCC4=CC(=O)CCC4=C3[C@@H](c3ccc(N(C)C)cc3)C[C@@]21C [MIFEPRISTONE] | Compound NOT metabolized

Conditions: human gut metagenome, 24 h, 2 µM
Remark: another data set of the same source

Compound | Bacterial Biotransformation
COC(=O)C(c1ccccc1)C1CCCCN1 (stereo not given) [METHYLPHENIDATE] | Compound NOT metabolized
CN1CCN2c3ccccc3Cc3ccccc3C2C1 (stereo not given) [MIANSERIN] | Compound metabolized
CC#C[C@]1(O)CC[C@H]2[C@@H]3CCC4=CC(=O)CCC4=C3[C@@H](c3ccc(N(C)C)cc3)C[C@@]21C [MIFEPRISTONE] | Compound metabolized

Conditions: human gut metagenome, 24 h, 2 µM
Remark: another data set of the same source

Compound | Bacterial Biotransformation
COC(=O)C(c1ccccc1)C1CCCCN1 (stereo not given) [METHYLPHENIDATE] | Compound NOT metabolized
CN1CCN2c3ccccc3Cc3ccccc3C2C1 (stereo not given) [MIANSERIN] | Compound NOT metabolized
CC#C[C@]1(O)CC[C@H]2[C@@H]3CCC4=CC(=O)CCC4=C3[C@@H](c3ccc(N(C)C)cc3)C[C@@]21C [MIFEPRISTONE] | Compound NOT metabolized

Assay: (§1) The drug is tested on Z-003 corresponding to pig gut metagenome with ENA study accession number: PRJEB37062 and ENA sample accession number: ERS12561803 for biotransformation under anaerobic condition. The drug concentrations were measured over 9 timepoints collected between 0 and 24 hours of incubation by liquid-chromatography-coupled mass spectrometry (LC–MS)
Conditions: 2 µM

Compound | Bacterial Biotransformation
COC(=O)C(c1ccccc1)C1CCCCN1 (stereo not given) [METHYLPHENIDATE] | Compound metabolized
CN1CCN2c3ccccc3Cc3ccccc3C2C1 (stereo not given) [MIANSERIN] | Compound metabolized
CC#C[C@]1(O)CC[C@H]2[C@@H]3CCC4=CC(=O)CCC4=C3[C@@H](c3ccc(N(C)C)cc3)C[C@@]21C [MIFEPRISTONE] | Compound metabolized

Conditions: human gut metagenome, 24 h, 2 µM
Remark: another data set of the same source

Compound | Bacterial Biotransformation
COC(=O)C(c1ccccc1)C1CCCCN1 (stereo not given) [METHYLPHENIDATE] | Compound metabolized
CN1CCN2c3ccccc3Cc3ccccc3C2C1 (stereo not given) [MIANSERIN] | Compound metabolized
CC#C[C@]1(O)CC[C@H]2[C@@H]3CCC4=CC(=O)CCC4=C3[C@@H](c3ccc(N(C)C)cc3)C[C@@]21C [MIFEPRISTONE] | Compound metabolized

Conditions: human gut metagenome, 24 h, 2 µM
Remark: another data set of the same source

Compound | Bacterial Biotransformation
COC(=O)C(c1ccccc1)C1CCCCN1 (stereo not given) [METHYLPHENIDATE] | Compound NOT metabolized
CN1CCN2c3ccccc3Cc3ccccc3C2C1 (stereo not given) [MIANSERIN] | Compound NOT metabolized
CC#C[C@]1(O)CC[C@H]2[C@@H]3CCC4=CC(=O)CCC4=C3[C@@H](c3ccc(N(C)C)cc3)C[C@@]21C [MIFEPRISTONE] | Compound metabolized

Conditions: human gut metagenome, 24 h, 2 µM
Remark: another data set of the same source

Compound | Bacterial Biotransformation
COC(=O)C(c1ccccc1)C1CCCCN1 (stereo not given) [METHYLPHENIDATE] | Compound NOT metabolized
CN1CCN2c3ccccc3Cc3ccccc3C2C1 (stereo not given) [MIANSERIN] | Compound NOT metabolized
CC#C[C@]1(O)CC[C@H]2[C@@H]3CCC4=CC(=O)CCC4=C3[C@@H](c3ccc(N(C)C)cc3)C[C@@]21C [MIFEPRISTONE] | Compound NOT metabolized

Conditions: human gut metagenome, 24 h, 2 µM
Remark: another data set of the same source

Compound | Bacterial Biotransformation
COC(=O)C(c1ccccc1)C1CCCCN1 (stereo not given) [METHYLPHENIDATE] | Compound NOT metabolized
CN1CCN2c3ccccc3Cc3ccccc3C2C1 (stereo not given) [MIANSERIN] | Compound NOT metabolized
CC#C[C@]1(O)CC[C@H]2[C@@H]3CCC4=CC(=O)CCC4=C3[C@@H](c3ccc(N(C)C)cc3)C[C@@]21C [MIFEPRISTONE] | Compound NOT metabolized

Assay: as §1, with “Z-030” for “Z-003”, “mouse” for “pig”, “ERS12561829” for “ERS12561803”
Conditions: 2 µM

Compound | Bacterial Biotransformation
COC(=O)C(c1ccccc1)C1CCCCN1 (stereo not given) [METHYLPHENIDATE] | Compound NOT metabolized
CN1CCN2c3ccccc3Cc3ccccc3C2C1 (stereo not given) [MIANSERIN] | Compound NOT metabolized
CC#C[C@]1(O)CC[C@H]2[C@@H]3CCC4=CC(=O)CCC4=C3[C@@H](c3ccc(N(C)C)cc3)C[C@@]21C [MIFEPRISTONE] | Compound NOT metabolized

Assay: as §1, with “WLS-077” for “Z-003”, “human” for “pig”, “ERS12561750” for “ERS12561803”
Conditions: 2 µM

Compound | Bacterial Biotransformation
COC(=O)C(c1ccccc1)C1CCCCN1 (stereo not given) [METHYLPHENIDATE] | Compound NOT metabolized
CN1CCN2c3ccccc3Cc3ccccc3C2C1 (stereo not given) [MIANSERIN] | Compound NOT metabolized
CC#C[C@]1(O)CC[C@H]2[C@@H]3CCC4=CC(=O)CCC4=C3[C@@H](c3ccc(N(C)C)cc3)C[C@@]21C [MIFEPRISTONE] | Compound NOT metabolized

Assay: as §1, with “Z-020” for “Z-003”, “rabbit” for “pig”, “ERS12561819” for “ERS12561803”
Conditions: 2 µM

Compound | Bacterial Biotransformation
COC(=O)C(c1ccccc1)C1CCCCN1 (stereo not given) [METHYLPHENIDATE] | Compound NOT metabolized
CN1CCN2c3ccccc3Cc3ccccc3C2C1 (stereo not given) [MIANSERIN] | Compound NOT metabolized
CC#C[C@]1(O)CC[C@H]2[C@@H]3CCC4=CC(=O)CCC4=C3[C@@H](c3ccc(N(C)C)cc3)C[C@@]21C [MIFEPRISTONE] | Compound metabolized

Assay: as §1, with “Z-008” for “Z-003”, “to” for “to pig gut”, “ERS12561808” for “ERS12561803”
Conditions: 2 µM

Compound | Bacterial Biotransformation
COC(=O)C(c1ccccc1)C1CCCCN1 (stereo not given) [METHYLPHENIDATE] | Compound NOT metabolized
CN1CCN2c3ccccc3Cc3ccccc3C2C1 (stereo not given) [MIANSERIN] | Compound NOT metabolized
CC#C[C@]1(O)CC[C@H]2[C@@H]3CCC4=CC(=O)CCC4=C3[C@@H](c3ccc(N(C)C)cc3)C[C@@]21C [MIFEPRISTONE] | Compound metabolized

Assay: as §1, with “Z-026” for “Z-003”, “to” for “to pig gut”, “ERS12561825” for “ERS12561803”
Conditions: 2 µM

Compound | Bacterial Biotransformation
COC(=O)C(c1ccccc1)C1CCCCN1 (stereo not given) [METHYLPHENIDATE] | Compound NOT metabolized
CN1CCN2c3ccccc3Cc3ccccc3C2C1 (stereo not given) [MIANSERIN] | Compound NOT metabolized
CC#C[C@]1(O)CC[C@H]2[C@@H]3CCC4=CC(=O)CCC4=C3[C@@H](c3ccc(N(C)C)cc3)C[C@@]21C [MIFEPRISTONE] | Compound NOT metabolized

Conditions: human gut metagenome, 24 h, 2 µM
Remark: another data set of the same source

Compound | Bacterial Biotransformation
COC(=O)C(c1ccccc1)C1CCCCN1 (stereo not given) [METHYLPHENIDATE] | Compound metabolized
CN1CCN2c3ccccc3Cc3ccccc3C2C1 (stereo not given) [MIANSERIN] | Compound metabolized
CC#C[C@]1(O)CC[C@H]2[C@@H]3CCC4=CC(=O)CCC4=C3[C@@H](c3ccc(N(C)C)cc3)C[C@@]21C [MIFEPRISTONE] | Compound metabolized

Conditions: human gut metagenome, 24 h, 2 µM
Remark: another data set of the same source

Compound | Bacterial Biotransformation
COC(=O)C(c1ccccc1)C1CCCCN1 (stereo not given) [METHYLPHENIDATE] | Compound metabolized
CN1CCN2c3ccccc3Cc3ccccc3C2C1 (stereo not given) [MIANSERIN] | Compound NOT metabolized
CC#C[C@]1(O)CC[C@H]2[C@@H]3CCC4=CC(=O)CCC4=C3[C@@H](c3ccc(N(C)C)cc3)C[C@@]21C [MIFEPRISTONE] | Compound NOT metabolized

Assay: as §1, with “WLS-220” for “Z-003”, “human” for “pig”, “ERS12561769” for “ERS12561803”
Conditions: 2 µM

Compound | Bacterial Biotransformation
COC(=O)C(c1ccccc1)C1CCCCN1 (stereo not given) [METHYLPHENIDATE] | Compound metabolized
CN1CCN2c3ccccc3Cc3ccccc3C2C1 (stereo not given) [MIANSERIN] | Compound metabolized
CC#C[C@]1(O)CC[C@H]2[C@@H]3CCC4=CC(=O)CCC4=C3[C@@H](c3ccc(N(C)C)cc3)C[C@@]21C [MIFEPRISTONE] | Compound metabolized

Conditions: human gut metagenome, 24 h, 2 µM
Remark: another data set of the same source

Compound | Bacterial Biotransformation
COC(=O)C(c1ccccc1)C1CCCCN1 (stereo not given) [METHYLPHENIDATE] | Compound NOT metabolized
CN1CCN2c3ccccc3Cc3ccccc3C2C1 (stereo not given) [MIANSERIN] | Compound metabolized
CC#C[C@]1(O)CC[C@H]2[C@@H]3CCC4=CC(=O)CCC4=C3[C@@H](c3ccc(N(C)C)cc3)C[C@@]21C [MIFEPRISTONE] | Compound metabolized

Conditions: human gut metagenome, 24 h, 2 µM
Remark: another data set of the same source

Compound | Bacterial Biotransformation
COC(=O)C(c1ccccc1)C1CCCCN1 (stereo not given) [METHYLPHENIDATE] | Compound metabolized
CN1CCN2c3ccccc3Cc3ccccc3C2C1 (stereo not given) [MIANSERIN] | Compound metabolized
CC#C[C@]1(O)CC[C@H]2[C@@H]3CCC4=CC(=O)CCC4=C3[C@@H](c3ccc(N(C)C)cc3)C[C@@]21C [MIFEPRISTONE] | Compound metabolized

Assay: as §1, with “WLS-007” for “Z-003”, “human” for “pig”, “ERS12561742” for “ERS12561803”
Conditions: 2 µM

Compound | Bacterial Biotransformation
COC(=O)C(c1ccccc1)C1CCCCN1 (stereo not given) [METHYLPHENIDATE] | Compound NOT metabolized
CN1CCN2c3ccccc3Cc3ccccc3C2C1 (stereo not given) [MIANSERIN] | Compound NOT metabolized
CC#C[C@]1(O)CC[C@H]2[C@@H]3CCC4=CC(=O)CCC4=C3[C@@H](c3ccc(N(C)C)cc3)C[C@@]21C [MIFEPRISTONE] | Compound metabolized

Assay: as §1, with “WLS-310” for “Z-003”, “human” for “pig”, “ERS12561785” for “ERS12561803”
Conditions: 2 µM

Compound | Bacterial Biotransformation
COC(=O)C(c1ccccc1)C1CCCCN1 (stereo not given) [METHYLPHENIDATE] | Compound NOT metabolized
CN1CCN2c3ccccc3Cc3ccccc3C2C1 (stereo not given) [MIANSERIN] | Compound NOT metabolized
CC#C[C@]1(O)CC[C@H]2[C@@H]3CCC4=CC(=O)CCC4=C3[C@@H](c3ccc(N(C)C)cc3)C[C@@]21C [MIFEPRISTONE] | Compound metabolized
